Laboratory results as given in article PMC11012124, “Synthesis of Novel Triazine-Based Chalcones and 8,9-dihydro-7H-pyrimido[4,5-b][1,4]diazepines as Potential Leads in the Search of Anticancer, Antibacterial and Antifungal Agents” (International Journal of Molecular Sciences, 2024).

Tests used:
KM12 = experiment: cells; conditions: Homo sapiens, KM12, 48 h
SK-MEL-28 = experiment: cells; conditions: Homo sapiens, SK-MEL-28, 48 h; for CC50: read-out: LC50
U251 = experiment: cells; conditions: Homo sapiens, U-251, 48 h; for GI50: U251, 48 h; for CC50: read-out: LC50
RXF 393 = experiment: cells; conditions: Homo sapiens, RXF 393, 48 h; for CC50: read-out: LC50
HCC-2998 = experiment: cells; conditions: Homo sapiens, HCC 2998, 48 h; for CC50: read-out: LC50
HT29 = experiment: cells; conditions: Homo sapiens, HT-29, 48 h; for CC50: read-out: LC50
UACC-62 = experiment: cells; conditions: Homo sapiens, UACC-62, 48 h; for CC50: read-out: LC50
MDA-MB-468 = experiment: cells; conditions: Homo sapiens, MDA-MB-468, 48 h; for CC50: read-out: LC50
BT-549 = experiment: cells; conditions: Homo sapiens, BT-549, 48 h; for CC50: read-out: LC50
MDA-MB-231/ATCC = experiment: cells; conditions: Homo sapiens, MDA-MB-231, 48 h; for CC50: read-out: LC50
SF-539 = experiment: cells; conditions: Homo sapiens, SF-539, 48 h; for CC50: read-out: LC50, SF-539, 48 h
RPMI-8226 = experiment: cells; conditions: Homo sapiens, RPMI-8226, 48 h; for CC50: read-out: LC50
SNB-75 = experiment: cells; conditions: Homo sapiens, SNB-75, 48 h; for CC50: read-out: LC50
HOP-62 = experiment: cells; conditions: Homo sapiens, HOP-62, 48 h; for CC50: read-out: LC50
HCT-116 = experiment: cells; conditions: Homo sapiens, HCT-116, 48 h; for CC50: read-out: LC50
UO-31 = experiment: cells; conditions: Homo sapiens, UO-31, 48 h; for CC50: read-out: LC50
COLO 205 = experiment: cells; conditions: Homo sapiens, COLO 205, 48 h; for CC50: read-out: LC50
M14 = experiment: cells; conditions: Homo sapiens, M14, 48 h; for CC50: read-out: LC50
SNB-19 = experiment: cells; conditions: Homo sapiens, SNB-19, 48 h; for CC50: read-out: LC50
MALME-3M = experiment: cells; conditions: Homo sapiens, 48 h; for CC50: read-out: LC50
60 cancer cell lines = experiment: NCI-60 one-dose screen (10 μM); format: cell-based; conditions: Homo sapiens; one dose of 10 μM, mean over 60 cancer cell lines; read-out: Mean Growth Percent (MGP)
Excerpt: Additionally, the mean of the growth percentages (MGP) of each compound against all the 60 cancer cell lines is also reported, which is used as one of the selection criteria to continue with tests at five concentration doses.

A549/ATCC = experiment: cells; conditions: Homo sapiens, A549, 48 h; for CC50: read-out: LC50
SW-620 = experiment: cells; conditions: Homo sapiens, SW-620, 48 h; for CC50: read-out: LC50
MOLT-4 = experiment: cells; conditions: Homo sapiens, MOLT-4, 48 h; for CC50: read-out: LC50
HS 578T = experiment: cells; conditions: Homo sapiens, 48 h; for CC50: read-out: LC50
NCI-H522 = experiment: cells; conditions: Homo sapiens, NCI-H522, 48 h; for CC50: read-out: LC50
HCT-15 = experiment: cells; conditions: Homo sapiens, HCT-15, 48 h; for CC50: read-out: LC50
PC-3 = experiment: cells; conditions: Homo sapiens, PC-3, 48 h; for CC50: read-out: LC50
[1] = Hemolytic activity, spectrophotometric; format: cell-based, human; conditions: human, human red blood cells (huRBC), 5% hematocrit, 200 μg/mL, 37 °C
T-47D = experiment: cells; conditions: Homo sapiens, T47D, 48 h; for CC50: read-out: LC50
OVCAR-8 = experiment: cells; conditions: Homo sapiens, OVCAR-8, 48 h; for CC50: read-out: LC50
CAKI-1 = experiment: cells; conditions: Homo sapiens, CAKI-1, 48 h; for CC50: read-out: LC50
NCI-H322M = experiment: cells; conditions: Homo sapiens, 48 h; for CC50: read-out: LC50
SK-OV-3 = experiment: cells; conditions: Homo sapiens, SK-OV-3, 48 h; for CC50: read-out: LC50
ACHN = experiment: cells; conditions: Homo sapiens, 48 h; for CC50: read-out: LC50
DU-145 = experiment: cells; conditions: Homo sapiens, DU-145, 48 h; for CC50: read-out: LC50
EKVX = experiment: cells; conditions: Homo sapiens, 48 h; for CC50: read-out: LC50

## COc1cc(/C=C/C(=O)c2ccc(S(=O)(=O)NCCNc3nc(Nc4ccc(F)cc4)nc(N(C)C)n3)cc2)cc(OC)c1OC [24d]
KM12
  GI50: 2070 nM
SK-MEL-28
  GI50: 6.13 µM
  CC50: 44.6 µM
U251
  GI50: 1.81 µM
  CC50: 6.89 µM
RXF 393
  GI50: 1450 nM
  CC50: 6.74 µM
HCC-2998
  GI50: 1620 nM
  CC50: 5.52 µM
HT29
  GI50: 1930 nM
  CC50: 6.46 µM
UACC-62
  GI50: 8.28 µM
  CC50: 48.8 µM
MDA-MB-468
  GI50: 2000 nM
  CC50: 11.5 µM
BT-549
  GI50: 2.25 µM
  CC50: 31.2 µM
MDA-MB-231/ATCC
  GI50: 4.41 µM
  CC50: 83.4 µM
SF-539
  GI50: 1.71 µM
  CC50: 5.93 µM
RPMI-8226
  GI50: 2500 nM
  CC50: > 100 µM
SNB-75
  CC50: 91.9 µM
HOP-62
  GI50: 14.1 µM
  CC50: 59.9 µM
HCT-116
  GI50: 1770 nM
  CC50: 7.66 µM
UO-31
  GI50: 4.45 µM
  CC50: 41.4 µM
COLO 205
  GI50: 4.78 µM
  CC50: 86.1 µM
M14
  GI50: 3.28 µM
  CC50: 47.4 µM
SNB-19
  GI50: 11.2 µM
  CC50: 48.7 µM
MALME-3M
  GI50: 11.9 µM
  CC50: 55.2 µM
60 cancer cell lines
  activity at 10 µM: -0.31%
A549/ATCC
  GI50: 12.2 µM
  CC50: 78.6 µM
SW-620
  GI50: 1.95 µM
  CC50: 7.43 µM
MOLT-4
  GI50: 2740 nM
  CC50: > 100 µM
HS 578T
  GI50: 8.24 µM
  CC50: > 100 µM
NCI-H522
  GI50: 6.45 µM
  CC50: 50 µM
HCT-15
  GI50: 1800 nM
  CC50: 6.57 µM
PC-3
  GI50: 3.22 µM
  CC50: > 100 µM
[1]
  hemolysis at 24 h, 200 µg/mL: 2.3%
T-47D
  GI50: 3.48 µM
  CC50: > 100 µM
OVCAR-8
  GI50: 11.1 µM
  CC50: > 100 µM
CAKI-1
  GI50: 5.2 µM
  CC50: > 100 µM
NCI-H322M
  GI50: 10.1 µM
  CC50: > 100 µM
SK-OV-3
  GI50: 21.8 µM
  CC50: > 100 µM
ACHN
  GI50: 5.13 µM
  CC50: 60.4 µM
DU-145
  GI50: 10.9 µM
  CC50: > 100 µM
EKVX
  GI50: 4.85 µM
  CC50: 42.2 µM

## CN(C)c1nc(NCCNS(=O)(=O)c2ccc(C(=O)/C=C/c3ccccc3)cc2)nc(Nc2ccc(F)cc2)n1 [24a]
KM12
  GI50: 3740 nM
KM12; read-out: LC50
  CC50: 54 µM
SK-MEL-28
  GI50: 10.2 µM
  CC50: 48.4 µM
U251
  GI50: 10.4 µM
  CC50: 57.8 µM
RXF 393
  GI50: 2940 nM
  CC50: 39.9 µM
HCC-2998
  GI50: 2350 nM
  CC50: 17.9 µM
HT29
  GI50: 3080 nM
  CC50: 73.5 µM
UACC-62
  GI50: 6.68 µM
  CC50: 46.9 µM
MDA-MB-468
  GI50: 2840 nM
  CC50: 37.6 µM
BT-549
  GI50: 13.9 µM
  CC50: 54.3 µM
MDA-MB-231/ATCC
  GI50: 4.84 µM
  CC50: 45.8 µM
SF-539
  GI50: 12 µM
  CC50: 50.2 µM
RPMI-8226
  GI50: 3040 nM
  CC50: > 100 µM
SNB-75
  GI50: 3.23 µM
  CC50: > 100 µM
HOP-62
  GI50: 11.8 µM
  CC50: 60.6 µM
HCT-116
  GI50: 1720 nM
  CC50: 6.1 µM
UO-31
  GI50: 4.6 µM
  CC50: 41.9 µM
COLO 205
  GI50: 5.46 µM
  CC50: 56.7 µM
M14
  GI50: 5.98 µM
  CC50: 51.5 µM
SNB-19
  GI50: 10.4 µM
  CC50: 51 µM
MALME-3M
  GI50: 12.6 µM
  CC50: 54.5 µM
60 cancer cell lines
  activity at 10 µM: 13.6%
A549/ATCC
  GI50: 8.33 µM
  CC50: 73.5 µM
SW-620
  GI50: 5.56 µM
  CC50: 54.3 µM
MOLT-4
  GI50: 3220 nM
  CC50: > 100 µM
HS 578T
  GI50: 7.39 µM
  CC50: > 100 µM
NCI-H522
  GI50: 5.47 µM
  CC50: 53.6 µM
HCT-15
  GI50: 2040 nM
  CC50: 7.25 µM
PC-3
  GI50: 4.39 µM
  CC50: > 100 µM
[1]
  hemolysis at 24 h, 200 µg/mL: 10.6%
T-47D
  GI50: 3.45 µM
  CC50: 41.7 µM
OVCAR-8
  GI50: 12.2 µM
  CC50: 57.1 µM
CAKI-1
  GI50: 4.75 µM
  CC50: 52.6 µM
NCI-H322M
  GI50: 9.83 µM
  CC50: 76.9 µM
SK-OV-3
  GI50: 13 µM
  CC50: 68.1 µM
ACHN
  GI50: 4.92 µM
  CC50: 43.5 µM
DU-145
  GI50: 12.1 µM
  CC50: 53.2 µM
EKVX
  GI50: 4.48 µM
  CC50: 40.6 µM
